Legend:
[1] = tested on: mesenteric artery of a rabbit; test: Relaxation of Mesenteric Artery (KCl-contracted spiral strip); design: species or system rabbit of Japanese local variety; details: Oryctolagus cuniculus; concentration of the hydrochloride attaining 50% of complete relaxation; rabbit mesenteric artery contracted with KCl; read-out: ED50 (the source's name)
Method: A rabbit of Japanese local variety weighing about 3 kg was subjected to blood-letting to death. Then, abdomen of the rabbit was dissected to pick up a mesenteric artery. […] Thus, the shrinkage and relaxation of the artery was ready to be measured as a load on the transducer. To the organ bath, KCl was added in an amount which makes the artery shrink at a half length that in 15 to 20 mM aqueous solution. Then, hydrochlorides of the compounds of the present invention were added to the organ bath to observe relaxation effect on the artery.
Effect of the compounds of the present invention on relaxation of mesenteric artery was examined according to the method as mentioned hereinbefore.

[2] = tested on: male spontaneously hypertensive rats (SHR); test: Reduction of Blood Pressure (systolic, tail plethysmographic method, oral); format: in vivo, rat (SHR, Wister Kyoto)
Method: Male spontaneously hypertensive rats (SHR, Wister Kyoto) weighing 300 to 350 g were used. Systolic blood pressure was measured indirectly by the tail plethysmographic method in conscious SHR, just prior to, and 1, 2, 4 and 6 hours after oral administration of test drugs. Test drugs, dissolved in deionized water, were administered orally in a volume of 10 ml-solution/kg-rat. Reduction in systolic blood pressure (ΔP, mmHg) was calculated by substracting a systolic blood pressure after administration from that just prior to administration.
Effect of the compounds of the present invention on reduction of blood pressure was examined according to the method as mentioned hereinbefore.

Acute Toxicity = details: mouse, in vivo; ddY male mice
Method: Acute toxicity of the compounds of the present invention was determined according to the method given below, and the results are shown in Table 15. […] It is known from the results that the acute toxicity of the compounds of the present invention is satisfactorily low.
Using ddY male mice, acute toxicity of the compounds of the present invention was examined according to the method proposed by K. Takagi et al. (K. Takagi and H. Ozawa, "Experimental Techniques in Pharmacology," p200-206 (1960), NANZANDO CO., LTD.).
Acute toxicity test of the compounds of the present invention was effected according to the method as mentioned hereinbefore.

femoral artery = test: Blood Flow Volume Increase of Femoral Artery; format: in vivo, Mongrel dogs; details: intravenous, anesthetized dogs
Method: (§1) A plethysmographic probe (manufactured and sold by NIHON KODEN CO., LTD.) was mounted on the femoral and vertebral arteries, and blood flow volume was measured by means of a electromagnetic blood flowmeter (type:MF-27, manufactured and sold by NIHON KODEN CO., LTD.). Under these conditions, compounds of the present invention were intravenously administered through a polyethylene tube inserted to a femoral veinlet, and change in blood flow volume was measured by means of the electromagnetic blood flowmeter.
(§2) Effect of the compounds of the present invention on dilation of femoral and vertebral arteries was examined according to the method as mentioned hereinbefore.

vertebral artery = test: Blood Flow Volume Increase of Vertebral Artery; format: in vivo, Mongrel dogs; details: intravenous, anesthetized dogs
Method: as §1, §2

EC50 [1]	Compound	ΔPmax (maximally reduced blood pressure) ([2]; 100 mg/kg)	also measured
15 µM	NCCCCNS(=O)(=O)c1cccc2c(O)nccc12 [Compound (48), N-(4-aminobutyl)-1-hydroxy-5-isoquinolinesulfonamide]	51 mmHg	–
14 µM	CC(CN)NS(=O)(=O)c1cccc2c(O)nccc12 (centres unmarked) [Compound (49), N-(2-amino-1-methylethyl)-1-hydroxy-5-isoquinolinesulfonamide]	–	ΔPmax (maximally reduced blood pressure) ([2]; 50 mg/kg): 33 mmHg
7 µM	CCCCC(CN)NS(=O)(=O)c1cccc2c(O)nccc12 (centres unmarked) [Compound (50), N-(1-aminomethylpentyl)-1-hydroxyl-5-isoquinolinesulfonamide]	–	ΔPmax (maximally reduced blood pressure) ([2]; 50 mg/kg): 28 mmHg
20 µM	CC(C)C(N)CNS(=O)(=O)c1cccc2c(O)nccc12 (centres unmarked) [Compound (51), N-(2-amino-3-methylbutyl)-1-hydroxy-5-isoquinolinesulfonamide]	–	ΔPmax (maximally reduced blood pressure) ([2]; 50 mg/kg): 71 mmHg
21 µM	CCCCN(CCCC)CCCNS(=O)(=O)c1cccc2c(O)nccc12 [Compound (52), N-(3-di-n-butylaminopropyl)-1-hydroxy-5-isoquinolinesulfonamide]	–	ΔPmax (maximally reduced blood pressure) ([2]; 50 mg/kg): 65 mmHg
17 µM	CN(CCNS(=O)(=O)c1cccc2c(O)nccc12)C1CCCCC1 [Compound (53), N-[2-(N-cyclohexyl-N-methylamino)ethyl]-1-hydroxy-5-isoquinolinesulfonamide]	–	ΔPmax (maximally reduced blood pressure) ([2]; 50 mg/kg): 56 mmHg
13 µM	N=C(N)NCCCCNS(=O)(=O)c1cccc2c(O)nccc12 [Compound (55), N-(4-guanidinobutyl)-1-hydroxy-5-isoquinolinesulfonamide]	38 mmHg	–
14 µM	CC(CNC(=N)N)NS(=O)(=O)c1cccc2c(O)nccc12 (centres unmarked) [Compound (56), N-(2-guanidino-1-methylethyl)-1-hydroxy-5-isoquinolinesulfonamide]	45 mmHg	–
11 µM	CCCCC(CNC(=N)N)NS(=O)(=O)c1cccc2c(O)nccc12 (centres unmarked) [Compound (57), N-(1-guanidinomethylpentyl)-1-hydroxy-5-isoquinolinesulfonamide]	38 mmHg	–
15 µM	CC(C)C(CNS(=O)(=O)c1cccc2c(O)nccc12)NC(=N)N (centres unmarked) [Compound (58), N-(2-guanidino-3-methylbutyl)-1-hydroxy-5-isoquinolinesulfonamide]	41 mmHg	–
21 µM	CC(CNC(=N)N)CNS(=O)(=O)c1cccc2c(O)nccc12 (centres unmarked) [Compound (59), N-(3-guanidino-2-methylpropyl)-1-hydroxy-5-isoquinolinesulfonamide]	52 mmHg	–
23 µM	CC(C)(CCNS(=O)(=O)c1cccc2c(O)nccc12)NC(=N)N [Compound (60), N-(3-guanidino-3-methylbutyl)-1-hydroxy-5-isoquinolinesulfonamide]	61 mmHg	–
17 µM	CC1CN(S(=O)(=O)c2cccc3c(O)nccc23)CCN1 (centres unmarked) [Compound (61), 1-(1-hydroxy-5-isoquinolinesulfonyl)-3-methylpiperazine]	48 mmHg	–
25 µM	CCC1CN(S(=O)(=O)c2cccc3c(O)nccc23)CCN1 (centres unmarked) [Compound (62), 1-(1-hydroxy-5-isoquinolinesulfonyl)-3-ethylpiperazine]	36 mmHg	–
18 µM	CC(C)CC1CN(S(=O)(=O)c2cccc3c(O)nccc23)CCN1 (centres unmarked) [Compound (63), 1-(1-hydroxy-5-isoquinolinesulfonyl)-3-isobutylpiperazine]	48 mmHg	–
21 µM	CC1CN(S(=O)(=O)c2cccc3c(O)nccc23)C(C)CN1 (centres unmarked) [Compound (64), 1-(1-hydroxy-5-isoquinolinesulfonyl)-2,5-dimethylpiperazine]	65 mmHg	–
25 µM	CN1CCN(S(=O)(=O)c2cccc3c(O)nccc23)CC1 [Compound (65), 1-(1-hydroxy-5-isoquinolinesulfonyl)-4-methylpiperazine]	53 mmHg	–
4 µM	N=C(N)N1CCN(S(=O)(=O)c2cccc3c(O)nccc23)CC1 [Compound (66), 1-(1-hydroxy-5-isoquinolinesulfonyl)-4-amidinopiperazine]	43 mmHg	–
6 µM	N=C(N)N1CCCN(S(=O)(=O)c2cccc3c(O)nccc23)CC1 [Compound (67), 1-(1-hydroxy-5-isoquinolinesulfonyl)-4-amidinohomopiperazine]	44 mmHg	–
9 µM	CC1CN(C(=N)N)CCN1S(=O)(=O)c1cccc2c(O)nccc12 (centres unmarked) [Compound (68), 1-(1-hydroxy-5-isoquinolinesulfonyl)-4-amidino-2-methylpiperazine]	48 mmHg	–
8 µM	CC1CN(S(=O)(=O)c2cccc3c(O)nccc23)C(C)CN1C(=N)N (centres unmarked) [Compound (69), 1-(1-hydroxy-5-isoquinolinesulfonyl)-4-amidino-2,5-dimethylpiperazine]	51 mmHg	–
2 µM	CCCCCCNCCNS(=O)(=O)c1cccc2c(Cl)nccc12 [Compound (74), N-(2-hexylaminoethyl)-1-chloro-5-isoquinolinesulfonamide]	45 mmHg	–
2 µM	O=S(=O)(c1cccc2c(Cl)nccc12)N1CCCNCC1 [Compound (76), 1-(1-chloro-5-isoquinolinesulfonyl)homopiperazine]	60 mmHg	–
6 µM	CCCCCCNCCNS(=O)(=O)c1cccc2c(O)nccc12 [Compound (81), N-(2-hexylaminoethyl)-1-hydroxy-5-isoquinolinesulfonamide]	54 mmHg	–
–	O=S(=O)(c1cccc2cnccc12)N1CCNCC1 [compound 2, reference compound]	11 mmHg	LD50 (Acute Toxicity): 29 mg/kg; Increase in femoral artery blood flow (femoral artery; 0.3 mg/kg): 20%; Increase in femoral artery blood flow (femoral artery; 1 mg/kg): 69%; Increase in vertebral artery blood flow (vertebral artery; 0.3 mg/kg): 36%; Increase in vertebral artery blood flow (vertebral artery; 1 mg/kg): 98%
–	N=C(N)NCCNS(=O)(=O)c1cccc2cnccc12 [compound 4, reference compound]	–	LD50 (Acute Toxicity): 48 mg/kg

Compound	EC50 [1]	ΔPmax (maximally reduced blood pressure) ([2]; 100 mg/kg)	also measured
CC1CN(S(=O)(=O)c2cccc3cnccc23)CCCN1 (centres unmarked) [(3), 1-(5-isoquinolinesulfonyl)-3-methylhomopiperazine]	1.6 µM	65 mmHg	LD50 (Acute Toxicity): 120 mg/kg; Increase in femoral artery blood flow (femoral artery; 0.3 mg/kg): 35%; Increase in vertebral artery blood flow (vertebral artery; 0.3 mg/kg): 78%
O=S(=O)(c1cccc2cnccc12)N1CCNCC(Cc2ccccc2)C1 (centres unmarked) [Compound (18), 1-(5-isoquinolinesulfonyl)-6-benzylhomopiperazine]	10 µM	43 mmHg	LD50 (Acute Toxicity): 197 mg/kg; Increase in femoral artery blood flow (femoral artery; 0.3 mg/kg): 45%; Increase in vertebral artery blood flow (vertebral artery; 0.3 mg/kg): 110%
N=C(N)NCCNS(=O)(=O)c1cccc2c(Cl)nccc12 [Compound (31), N-(2-guanidinoethyl)-1-chloro-5-isoquinolinesulfonamide]	2 µM	40 mmHg	LD50 (Acute Toxicity): 160 mg/kg
N=C(N)NCCNS(=O)(=O)c1cccc2c(O)nccc12 [Compound (54), N-(2-guanidinoethyl)-1-hydroxy-5-isoquinolinesulfonamide]	18 µM	40 mmHg	LD50 (Acute Toxicity): 135 mg/kg

Source: patent US4678783A, “Substituted isoquinolinesulfonyl compounds” (Asahi Kasei Kogyo Kabushiki Kaisha, priority 1984, dated 1987)
